Common to all, as to type: in vivo
For assay [1], the system named is fighting episodes in mice. As to the kind of experiment: Suppression of fighting behavior (electric foot-shock induced fighting). The following applies: Mus musculus; female mice, oral, 60 min before foot-shock for 3 min; dose to suppress 50% of fighting pairs. The protocol: I. suppression of Fighting Behavior
Fighting episodes were produced in mice by the method described by Tedeschi et al in Journal of Pharmacology and Experimental Therapeutics, Vol. 125, pp. 28 ff. (1959). Groups of 8 female mice (4 pairs) were given orally, the test compound 60 minutes prior to receiving electric foot-shock for 3 minutes with 530 volts of interrupted direct current, 1.3 milliamperes, 10 Hz. […] The control mice of 81 pairs had shown the fighting episodes of 8.7 times on the average under the same conditions. The ED50, a dose required to suppress 50% of fighting pairs was determined graphically.

Assay [2] can be described thus: Anti-pentylenetetrazole effect (prevention of death). The note with it: Mus musculus, ip; mice, intraperitoneal, 15 min before pentylenetetrazole 150 mg/kg s.c.; dead mice counted at 3 hours; read-out: Antipentylenetetrazole Effect ED50. Here is the method: Ii. anti-pentylenetetrazole Effect
Pentylenetetrazole (150 mg/kg) was administered subcutaneously to groups, each of 6 mice, 15 minutes after intraperitoneal administration of the test compound. The number of dead mice were counted 3 hours after the administration of pentylenetetrazole, and then the ED50, a dose required to reduce the number of dead mice to 50%, was determined graphically.

Assay [3] can be described thus: Anti-megimide effect (prevention of tonic extensor convulsion). The note with it: Mus musculus, ip; mice, intraperitoneal, 60 min before megimide 80 mg/kg s.c.; tonic extensor convulsion prevented for 3 hours in 50%; read-out: Antimegimide Effect ED50. The protocol:
Iii. anti-megimide Effect
Megimide (80 mg/kg) was administered subcutaneously to groups, each of 6 mice, 60 minutes after intra-peritoneal administration of the test compound. The ED50, a dose required to prevent for 3 hours, the tonic extensor convulsion induced by the administration of megimide in 50% of the animals, was determined graphically.

From patent US3965111A, “Triazolothienodiazepine compounds” (Yoshitomi Pharmaceutical Industries, Ltd., priority 1971, dated 1976) come the findings set out here.

The structures appear in SMILES notation.

As a reminder, the ED50 is the dose that gives a 50% effect, or the effect in half of the subjects. Take `CCc1cc2c(s1)-n1c(nn(C)c1=O)CN=C2c1ccccc1Cl` [B, 2-Methyl-6-o-chlorophenyl-8-ethyl-1,2-dihydro-4H-s-triazolo[3,4-c]-thieno[2,3-e][1,4]diazepin-1-one]: the ED50 in assay [1] came out at 0.8 mg/kg; in assay [2], 1.4 mg/kg; in assay [3], 5.7 mg/kg.

On to `CCc1cc2c(s1)-n1c(n[nH]c1=O)CN=C2c1ccccc1Br` [C, 6-o-Bromophenyl-8-ethyl-1,2-dihydro-4H-s-triazolo[3,4-c]-thieno[2,3-e]-[1,4]diazepin-1-one], for which the values for the ED50 in assay [1], in assay [2] and in assay [3] were 2.7 mg/kg, 2.6 mg/kg and 7.2 mg/kg, respectively.

`Cc1cc2c(s1)-n1c(nn(C)c1=O)CN=C2c1ccccc1Cl` [A, 2,8-Dimethyl-6-o-chlorophenyl-1,2-dihydro-4H-s-triazolo [3,4-c]-thieno[2,3-e][1,4]diazepin-1-one]: the ED50 came out at 4.8 mg/kg in assay [1], 0.9 mg/kg in assay [2] and 1.3 mg/kg in assay [3].
